From patent US20100179118A1, “CYCLIC AMINOALKYLCARBOXAMIDE DERIVATIVE” (DAINIPPON SUMITOMO PHARMA CO., LTD., priority 2006, published 2010)

Experiments:
[1] = system: BN rat DNCB repetitive application dermatitis model; assay: Suppressive action on BN rat DNCB repetitive application dermatitis model; format: in vivo; settings: dose 2 mg/kg, oral once a day; AUC of ear thickness increase vs solvent control; male BN rat
Method: Suppressive Action on BN Rat DNCB Repetitive Application Dermatitis Model
A 8-week-old male rat was sensitized by applying 30 μL of 1.5 wt % solution of dinitrochlorobenzene (DNCB) dissolved in acetone:olive oil=4:1 solution to the right ear on day 1 and 3 days later. Starting from one week thereafter, the same solution was consecutively applied to the right ear every other day in total of 6 times, whereby chronic dermatitis was induced in which the skin thickness increases with time. As for the level of dermatitis, the thickness was measured with a dial gauge thickness before application of the solution, and expressed by the difference from the measured thickness of the right ear immediately before induction on day 1 of the induction. The drug was suspended in 0.5 wt % tragacanth, and orally administered once a day immediately before induction on day 1 of the induction and after 24 hr value measurement the next day. The changes in the ear tumentia with time were monitored, and the area under the curve in a graph showing the values up to 48 hr after the final induction was calculated, from which the percent suppression relative to the area of the solvent control group was determined. As a comparison control compound, prednisolone, which is a steroid, was used.

[2] = system: TMA (trimellitic anhydride) repetitive application dermatitis model; assay: Suppressive action on TMA (trimellitic anhydride) repetitive application dermatitis model; format: in vivo, mice; settings: for inhibition in vivo at 20 mg/kg: Mus musculus, 8 h, oral twice (30 min before and 4 hr after induction), ear thickness vs solvent control, male BALB/c mice, read-out: right ear suppression (%) at 8 hr after final induction

Compound | suppression (%) at 48 hr after final induction [1] | inhibition in vivo at 20 mg/kg [2] | right ear suppression (%) at 8 hr after final induction ([2]; mouse, in vivo, po, 80 mg/kg)
O=C(c1ccc(Cl)cc1)N1CCC(N(C(=O)CN2CCOCC2)C2CCCCC2)CC1 [Example 65, N-[1-(4-chlorobenzoyl)piperidin-4-yl]-N-cyclohexyl-2-(morpholin-4-yl)acetamide] | 20.5% | 41% | 
O=C(O)c1cccc(N(C(=O)CN2CCCC2)C2CCN(C(=O)c3ccc(C(F)(F)F)cc3)CC2)c1 [Example 227, N-(3-carboxylphenyl)-2-(pyrrolidin-1-yl)-N-[1-(4-trifluoromethylbenzoyl)piperidin-4-yl]acetamide] |  |  | 57.2%
C[C@]12C=CC(=O)C=C1CC[C@@H]1[C@@H]2[C@@H](O)C[C@@]2(C)[C@H]1CC[C@]2(O)C(=O)CO [prednisolone, reference compound] | 44.0% | 67.8% | 
